Source: patent US20120219615A1, “Therapeutic Use of a TLR Agonist and Combination Therapy” (The Trustees of the University of Pennsylvania, priority 2010, published 2012)
Read-outs that look alike come from different tables or passages of the source.

Experiments:
[1] = target: T1, TLR7 (Homo sapiens, UniProt Q9NYK1); experiment: IFNα production in PBMCs (marker of TLR7 activation); format: cell-based; conditions: PBMCs from 15 healthy donors
T1 construct: expressed in transfected cells; host or cells: HEK293
T1 sequence (Q9NYK1 27-1049): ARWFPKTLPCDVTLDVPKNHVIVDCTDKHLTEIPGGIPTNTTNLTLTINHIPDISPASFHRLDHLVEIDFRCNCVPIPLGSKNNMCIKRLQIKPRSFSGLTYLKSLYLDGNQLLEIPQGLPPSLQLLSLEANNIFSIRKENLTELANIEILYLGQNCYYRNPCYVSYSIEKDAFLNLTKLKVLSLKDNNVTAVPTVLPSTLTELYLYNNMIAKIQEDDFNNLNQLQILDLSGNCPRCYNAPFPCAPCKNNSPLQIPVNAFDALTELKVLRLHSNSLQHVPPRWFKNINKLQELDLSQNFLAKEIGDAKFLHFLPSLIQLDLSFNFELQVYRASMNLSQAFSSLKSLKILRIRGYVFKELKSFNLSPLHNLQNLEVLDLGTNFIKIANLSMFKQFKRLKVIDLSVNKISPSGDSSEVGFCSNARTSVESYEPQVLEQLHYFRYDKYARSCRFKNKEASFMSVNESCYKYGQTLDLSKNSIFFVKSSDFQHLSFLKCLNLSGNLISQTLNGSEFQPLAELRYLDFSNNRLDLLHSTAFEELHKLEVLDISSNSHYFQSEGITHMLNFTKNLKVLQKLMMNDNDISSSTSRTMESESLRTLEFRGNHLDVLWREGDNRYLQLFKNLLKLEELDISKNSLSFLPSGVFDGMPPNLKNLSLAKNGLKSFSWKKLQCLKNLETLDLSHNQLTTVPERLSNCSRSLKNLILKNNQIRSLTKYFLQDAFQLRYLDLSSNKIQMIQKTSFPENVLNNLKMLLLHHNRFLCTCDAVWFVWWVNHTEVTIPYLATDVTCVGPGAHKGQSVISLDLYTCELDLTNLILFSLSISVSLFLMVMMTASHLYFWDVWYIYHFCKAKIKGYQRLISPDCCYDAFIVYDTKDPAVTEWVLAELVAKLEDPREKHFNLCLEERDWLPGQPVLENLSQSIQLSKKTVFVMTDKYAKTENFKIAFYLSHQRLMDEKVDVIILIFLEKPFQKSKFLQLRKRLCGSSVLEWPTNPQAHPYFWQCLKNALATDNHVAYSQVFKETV
Protocol: (§1) The half-maximal effective concentration (EC50) for VTX-2337 activation of TLR8 and TLR7 was assessed in peripheral blood mononuclear cells (PBMCs) from 15 healthy donors and also in HEK293 cells transfected with TLR8 or TLR7 and an NF-κB driven reporter gene. […] Also it was observed that VTX-2337 had no activity on TLR2, TLR3, TLR4, TLR5, TLR6, or TLR9 at concentrations up to 25 μM.

[2] = target: T1, TLR7; experiment: HEK293 cells transfected with TLR7 and NF-κB driven reporter gene; format: cell-based; conditions: HEK293 transfectants
Protocol: as §1

[3] = target: TLR4 (Homo sapiens, UniProt O00206+Q9Y6Y9); experiment: Activity on TLR4; format: cell-based; conditions: concentrations up to 25 μM
Protocol: as §1

[4] = target: TLR5 (Homo sapiens, UniProt O60602); experiment: Activity on TLR5; format: cell-based; conditions: concentrations up to 25 μM
Protocol: as §1

[5] = target: TLR6 (Homo sapiens, UniProt O60603+Q9Y2C9); experiment: Activity on TLR6; format: cell-based; conditions: concentrations up to 25 μM
Protocol: as §1

[6] = Phase I clinical study: pharmacokinetics after subcutaneous administration; format: in vivo; conditions: human; for DN AUC(0-∞) / DN Cmax: dose normalized; for DN AUC(0-∞) / DN Cmax / AUC(0-inf) / Cmax / half-life / Tmax: first dose; for AUC(0-inf) / Cmax / half-life / Tmax: plasma, sc
Protocol: Study Procedures: VTX-2337 was administered weekly via subcutaneous injection on Days 1, 8, and 15 of a 28-day dosing cycle for two cycles. Using a modified Fibonacci dose-escalation scheme, successive cohorts received doses ranging from 0.1 mg/m^2 to 3.9 mg/m^2 of VTX-2337. Plasma samples were collected for pharmacokinetic analysis after the first dose of the first treatment cycle and for pharmacodynamic analyses after the first dose of the first and second treatment cycles.
Samples were collected at 0.5, 1, 1.5, 2, 4, 8, and 24 hours after subcutaneous administration of the first dose of VTX-2337 and plasma levels of VTX-2337 were quantified by LC-MS/MS. VTX-2337 was rapidly absorbed into systemic circulation with the mean Tmax occurring between 0.5 and 0.8 hours following dosing. […] Peak plasma levels (Cmax) and total systemic exposure both increased with increasing dose. Dose normalized (DN) values for Cmax and AUC(0-∞) were calculated.

TLR4, sequence (O00206 24-839, species assumed): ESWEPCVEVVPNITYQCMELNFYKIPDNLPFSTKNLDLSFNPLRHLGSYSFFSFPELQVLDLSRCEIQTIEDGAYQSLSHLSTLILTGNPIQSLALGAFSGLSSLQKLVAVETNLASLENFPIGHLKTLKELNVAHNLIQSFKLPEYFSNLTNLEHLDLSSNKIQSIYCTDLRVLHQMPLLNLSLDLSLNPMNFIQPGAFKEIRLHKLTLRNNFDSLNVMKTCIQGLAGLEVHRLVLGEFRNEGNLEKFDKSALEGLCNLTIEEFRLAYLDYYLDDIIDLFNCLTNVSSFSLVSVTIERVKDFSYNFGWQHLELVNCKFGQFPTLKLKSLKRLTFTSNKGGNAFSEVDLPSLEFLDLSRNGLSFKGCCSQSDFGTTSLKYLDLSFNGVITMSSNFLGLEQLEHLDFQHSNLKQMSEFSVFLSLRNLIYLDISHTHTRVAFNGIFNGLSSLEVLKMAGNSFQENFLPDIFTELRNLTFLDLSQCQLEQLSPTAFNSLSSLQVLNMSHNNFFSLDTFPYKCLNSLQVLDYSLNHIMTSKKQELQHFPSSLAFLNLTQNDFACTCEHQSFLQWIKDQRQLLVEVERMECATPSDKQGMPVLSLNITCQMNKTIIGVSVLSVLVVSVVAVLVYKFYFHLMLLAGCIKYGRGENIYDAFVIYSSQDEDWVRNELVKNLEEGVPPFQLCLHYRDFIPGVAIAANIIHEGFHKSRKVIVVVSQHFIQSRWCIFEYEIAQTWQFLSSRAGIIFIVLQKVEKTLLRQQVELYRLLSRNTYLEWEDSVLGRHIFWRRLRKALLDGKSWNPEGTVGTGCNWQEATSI
TLR4, sequence (Q9Y6Y9 17-160 limits assumed, species assumed): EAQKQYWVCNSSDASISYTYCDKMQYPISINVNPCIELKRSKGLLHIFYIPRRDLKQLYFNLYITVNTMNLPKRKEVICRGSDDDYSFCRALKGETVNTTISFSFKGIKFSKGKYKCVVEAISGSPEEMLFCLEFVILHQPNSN
TLR6, sequence (Q9Y2C9 32-796, species assumed): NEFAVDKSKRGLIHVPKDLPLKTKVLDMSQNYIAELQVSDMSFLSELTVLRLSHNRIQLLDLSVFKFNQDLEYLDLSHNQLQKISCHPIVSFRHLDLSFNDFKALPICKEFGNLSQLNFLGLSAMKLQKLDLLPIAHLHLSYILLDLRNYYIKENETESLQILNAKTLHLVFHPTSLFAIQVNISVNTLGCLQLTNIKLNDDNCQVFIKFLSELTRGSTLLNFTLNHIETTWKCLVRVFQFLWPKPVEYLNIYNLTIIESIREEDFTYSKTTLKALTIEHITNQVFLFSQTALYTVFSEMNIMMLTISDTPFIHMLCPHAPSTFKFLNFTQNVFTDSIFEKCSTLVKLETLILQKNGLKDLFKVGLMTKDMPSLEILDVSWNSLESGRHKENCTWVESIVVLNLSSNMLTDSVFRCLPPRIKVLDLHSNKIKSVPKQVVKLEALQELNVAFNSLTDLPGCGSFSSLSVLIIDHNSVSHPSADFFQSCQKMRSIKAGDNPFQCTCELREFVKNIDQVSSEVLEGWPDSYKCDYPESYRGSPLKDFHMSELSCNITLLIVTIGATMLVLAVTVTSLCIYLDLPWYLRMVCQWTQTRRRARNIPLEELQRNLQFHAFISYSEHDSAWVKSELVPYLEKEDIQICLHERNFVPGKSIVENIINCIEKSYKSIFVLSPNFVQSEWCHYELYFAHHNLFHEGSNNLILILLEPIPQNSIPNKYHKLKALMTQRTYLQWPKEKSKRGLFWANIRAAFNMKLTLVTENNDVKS
TLR6, sequence (O60603 21-784, species assumed): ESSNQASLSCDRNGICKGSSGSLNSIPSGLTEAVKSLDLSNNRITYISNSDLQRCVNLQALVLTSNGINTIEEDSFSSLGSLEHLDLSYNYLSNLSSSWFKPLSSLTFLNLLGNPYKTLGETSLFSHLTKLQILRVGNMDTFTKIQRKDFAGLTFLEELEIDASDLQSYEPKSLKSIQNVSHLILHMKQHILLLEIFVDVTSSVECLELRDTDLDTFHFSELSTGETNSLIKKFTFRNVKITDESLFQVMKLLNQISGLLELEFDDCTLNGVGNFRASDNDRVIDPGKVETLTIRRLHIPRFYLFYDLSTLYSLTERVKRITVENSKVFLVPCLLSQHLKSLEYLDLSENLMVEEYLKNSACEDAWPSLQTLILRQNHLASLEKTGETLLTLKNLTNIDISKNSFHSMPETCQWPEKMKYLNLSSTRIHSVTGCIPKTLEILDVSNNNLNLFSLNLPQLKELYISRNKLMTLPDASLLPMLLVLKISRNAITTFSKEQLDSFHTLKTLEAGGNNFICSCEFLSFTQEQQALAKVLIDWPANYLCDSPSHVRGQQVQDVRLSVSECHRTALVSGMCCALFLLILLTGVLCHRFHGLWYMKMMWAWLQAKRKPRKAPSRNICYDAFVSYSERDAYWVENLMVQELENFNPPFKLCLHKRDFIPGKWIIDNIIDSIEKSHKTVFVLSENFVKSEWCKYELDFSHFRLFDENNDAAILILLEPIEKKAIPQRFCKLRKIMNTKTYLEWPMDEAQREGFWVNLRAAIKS
TLR5, sequence (O60602 21-858, species assumed): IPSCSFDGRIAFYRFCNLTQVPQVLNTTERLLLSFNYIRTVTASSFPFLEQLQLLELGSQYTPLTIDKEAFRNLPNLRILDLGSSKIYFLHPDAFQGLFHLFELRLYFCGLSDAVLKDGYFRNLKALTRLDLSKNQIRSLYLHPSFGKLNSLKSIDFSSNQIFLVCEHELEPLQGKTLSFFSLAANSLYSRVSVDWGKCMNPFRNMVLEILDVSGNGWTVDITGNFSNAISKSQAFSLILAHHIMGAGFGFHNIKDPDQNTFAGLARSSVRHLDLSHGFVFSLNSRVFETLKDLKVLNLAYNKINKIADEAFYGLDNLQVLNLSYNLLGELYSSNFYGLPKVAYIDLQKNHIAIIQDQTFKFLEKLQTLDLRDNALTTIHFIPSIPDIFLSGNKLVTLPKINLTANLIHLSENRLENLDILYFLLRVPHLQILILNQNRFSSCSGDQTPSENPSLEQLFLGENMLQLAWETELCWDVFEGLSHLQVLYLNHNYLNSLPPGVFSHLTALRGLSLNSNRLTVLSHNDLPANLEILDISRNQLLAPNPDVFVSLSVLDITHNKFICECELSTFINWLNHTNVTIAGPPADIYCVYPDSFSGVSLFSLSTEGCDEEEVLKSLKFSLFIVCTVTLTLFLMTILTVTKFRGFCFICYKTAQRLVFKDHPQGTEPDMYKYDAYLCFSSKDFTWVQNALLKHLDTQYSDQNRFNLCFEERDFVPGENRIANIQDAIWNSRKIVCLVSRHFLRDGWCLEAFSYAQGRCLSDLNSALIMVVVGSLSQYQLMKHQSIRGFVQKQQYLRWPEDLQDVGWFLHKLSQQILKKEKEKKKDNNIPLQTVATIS

CCCN(CCC)C(=O)C1=Cc2ccc(-c3ccc(C(=O)N4CCCC4)cc3)cc2N=C(N)C1 [VTX-2337, 2-amino-N,N-dipropyl-8-(4-(pyrrolidine-1-carbonyl)phenyl)-3H-benzo[b]azepine-4-carboxamide]
EC50 [1]: > 3330 nM | EC50 [2]: 2000 nM | activity on TLR4 [3]: no activity | activity on TLR5 [4]: no activity | activity on TLR6 [5]: no activity | DN AUC(0-∞) ([6]; s.c., 0.1 mg/m^2): 31.2 (ng · hr/mL)/(mg/m^2) | DN Cmax ([6]; s.c., 0.1 mg/m^2): 15.2 (ng/ml)/(mg/m^2) | DN AUC(0-∞) ([6]; s.c., 0.2 mg/m^2): 23.7 (ng · hr/mL)/(mg/m^2) | DN Cmax ([6]; s.c., 0.2 mg/m^2): 9.9 (ng/ml)/(mg/m^2) | DN AUC(0-∞) ([6]; s.c., 0.4 mg/m^2): 27.4 (ng · hr/mL)/(mg/m^2) | DN Cmax ([6]; s.c., 0.4 mg/m^2): 16.7 (ng/ml)/(mg/m^2) | DN AUC(0-∞) ([6]; s.c., 0.8 mg/m^2): 24.0 (ng · hr/mL)/(mg/m^2) | DN Cmax ([6]; s.c., 0.8 mg/m^2): 7.4 (ng/ml)/(mg/m^2) | DN AUC(0-∞) ([6]; s.c., 1.3 mg/m^2): 22.7 (ng · hr/mL)/(mg/m^2) | DN Cmax ([6]; s.c., 1.3 mg/m^2): 8.4 (ng/ml)/(mg/m^2) | DN AUC(0-∞) ([6]; s.c., 2.0 mg/m^2): 29.6 (ng · hr/mL)/(mg/m^2) | DN Cmax ([6]; s.c., 2.0 mg/m^2): 7.3 (ng/ml)/(mg/m^2) | DN AUC(0-∞) ([6]; s.c., 2.8 mg/m^2): 28.7 (ng · hr/mL)/(mg/m^2) | DN Cmax ([6]; s.c., 2.8 mg/m^2): 7.1 (ng/ml)/(mg/m^2) | DN AUC(0-∞) ([6]; s.c., 3.9 mg/m^2): 20.8 (ng · hr/mL)/(mg/m^2) | DN Cmax ([6]; s.c., 3.9 mg/m^2): 5.9 (ng/ml)/(mg/m^2) | pharmacokinetics over the dose ranges evaluated ([6]; s.c., 0.1-3.9 mg/m^2): appeared to be linear | AUC(0-inf) ([6]; 0.1 mg/m^2 (~0.0022 mg/kg)): 3.12 ng·h/mL | Cmax ([6]; 0.1 mg/m^2 (~0.0022 mg/kg)): 1.52 ng/mL | AUC(0-inf) ([6]; 0.2 mg/m^2 (~0.0054 mg/kg)): 4.74 ng·h/mL | Cmax ([6]; 0.2 mg/m^2 (~0.0054 mg/kg)): 1.97 ng/mL | AUC(0-inf) ([6]; 0.4 mg/m^2 (~0.011 mg/kg)): 10.9 ng·h/mL | Cmax ([6]; 0.4 mg/m^2 (~0.011 mg/kg)): 6.69 ng/mL | AUC(0-inf) ([6]; 0.8 mg/m^2 (~0.022 mg/kg)): 19.2 ng·h/mL | Cmax ([6]; 0.8 mg/m^2 (~0.022 mg/kg)): 5.93 ng/mL | AUC(0-inf) ([6]; 1.3 mg/m^2 (~0.035 mg/kg)): 29.5 ng·h/mL | Cmax ([6]; 1.3 mg/m^2 (~0.035 mg/kg)): 10.9 ng/mL | AUC(0-inf) ([6]; 2.0 mg/m^2 (~0.054 mg/kg)): 59.1 ng·h/mL | Cmax ([6]; 2.0 mg/m^2 (~0.054 mg/kg)): 14.6 ng/mL | AUC(0-inf) ([6]; 2.8 mg/m^2 (~0.076 mg/kg)): 80.3 ng·h/mL | Cmax ([6]; 2.8 mg/m^2 (~0.076 mg/kg)): 19.9 ng/mL | AUC(0-inf) ([6]; 3.9 mg/m^2 (~0.105 mg/kg)): 81.1 ng·h/mL | Cmax ([6]; 3.9 mg/m^2 (~0.105 mg/kg)): 23 ng/mL | half-life ([6]; s.c., 0.1 mg/m^2 (~0.0022 mg/kg), read-out: T1/2 (converted)): 1.7 h | Tmax ([6]; s.c., 0.1 mg/m^2 (~0.0022 mg/kg), read-out: Tmax): 0.5 h | half-life ([6]; s.c., 0.2 mg/m^2 (~0.0054 mg/kg), read-out: T1/2 (converted)): 3 h | Tmax ([6]; s.c., 0.2 mg/m^2 (~0.0054 mg/kg), read-out: Tmax): 0.8 h | half-life ([6]; s.c., 0.4 mg/m^2 (~0.011 mg/kg), read-out: T1/2 (converted)): 6.6 h | Tmax ([6]; s.c., 0.4 mg/m^2 (~0.011 mg/kg), read-out: Tmax): 0.5 h | half-life ([6]; s.c., 0.8 mg/m^2 (~0.022 mg/kg), read-out: T1/2 (converted)): 5.3 h | Tmax ([6]; s.c., 0.8 mg/m^2 (~0.022 mg/kg), read-out: Tmax): 0.5 h | half-life ([6]; s.c., 1.3 mg/m^2 (~0.035 mg/kg), read-out: T1/2 (converted)): 5.6 h | Tmax ([6]; s.c., 1.3 mg/m^2 (~0.035 mg/kg), read-out: Tmax): 0.5 h | half-life ([6]; s.c., 2.0 mg/m^2 (~0.054 mg/kg), read-out: T1/2 (converted)): 6.7 h | Tmax ([6]; s.c., 2.0 mg/m^2 (~0.054 mg/kg), read-out: Tmax): 0.5 h | half-life ([6]; s.c., 2.8 mg/m^2 (~0.076 mg/kg), read-out: T1/2 (converted)): 5.7 h | Tmax ([6]; s.c., 2.8 mg/m^2 (~0.076 mg/kg), read-out: Tmax): 0.5 h | half-life ([6]; s.c., 3.9 mg/m^2 (~0.105 mg/kg), read-out: T1/2 (converted)): 5.3 h | Tmax ([6]; s.c., 3.9 mg/m^2 (~0.105 mg/kg), read-out: Tmax): 0.5 h | Tmax ([6]; s.c., across cohorts 0.1-3.9 mg/m^2, read-out: mean Tmax): 0.5 to 0.8 h | half-life ([6]; s.c., across cohorts 0.1-3.9 mg/m^2, read-out: mean half-life (t1/2)): 1.7 to 6.7 h
